Measurements published in article PMC8376405 (Protein Science : A Publication of the Protein Society, 2021).

T1: CtTrpAB (Chlamydia trachomatis, UniProt O84172)
T1 sequence (O84172 1-392): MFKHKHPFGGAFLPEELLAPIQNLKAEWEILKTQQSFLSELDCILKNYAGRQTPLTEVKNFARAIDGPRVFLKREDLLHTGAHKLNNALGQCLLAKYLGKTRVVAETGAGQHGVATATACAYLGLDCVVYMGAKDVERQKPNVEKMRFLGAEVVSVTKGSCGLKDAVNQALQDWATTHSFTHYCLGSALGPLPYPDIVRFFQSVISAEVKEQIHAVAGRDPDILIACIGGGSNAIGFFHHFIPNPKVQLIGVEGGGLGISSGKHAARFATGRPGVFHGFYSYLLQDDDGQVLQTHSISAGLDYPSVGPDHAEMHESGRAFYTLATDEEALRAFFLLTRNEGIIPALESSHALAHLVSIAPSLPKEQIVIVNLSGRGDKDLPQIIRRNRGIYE
T1 sequence (O84173 1-253 partner): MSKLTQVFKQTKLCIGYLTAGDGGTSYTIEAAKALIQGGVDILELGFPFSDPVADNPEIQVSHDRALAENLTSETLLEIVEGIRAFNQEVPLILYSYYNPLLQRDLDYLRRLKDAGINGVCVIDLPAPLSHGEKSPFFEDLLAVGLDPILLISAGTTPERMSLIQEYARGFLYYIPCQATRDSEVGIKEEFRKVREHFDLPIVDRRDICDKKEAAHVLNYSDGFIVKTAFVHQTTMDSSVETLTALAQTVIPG

B1: CtTrpAB (Chlamydia trachomatis D/UW-3/CX) (protein)
chain: MFKHKHPFGGAFLPEELLAPIQNLKAEWEILKTQQSFLSELDCILKNYAGRQTPLTEVKNFARAIDGPRVFLKREDLLHTGAHKLNNALGQCLLAKYLGKTRVVAETGAGQHGVATATACAYLGLDCVVYMGAKDVERQKPNVEKMRFLGAEVVSVTKGSCGLKDAVNQALQDWATTHSFTHYCLGSALGPLPYPDIVRFFQSVISAEVKEQIHAVAGRDPDILIACIGGGSNAIGFFHHFIPNPKVQLIGVEGGGLGISSGKHAARFATGRPGVFHGFYSYLLQDDDGQVLQTHSISAGLDYPSVGPDHAEMHESGRAFYTLATDEEALRAFFLLTRNEGIIPALESSHALAHLVSIAPSLPKEQIVIVNLSGRGDKDLPQIIRRNRGIYE

Assays:
[1] = molecular target: T1, CtTrpAB; experiment: X-ray crystal structure, […] Å; assay type: binding; conditions: covalent adduct to beta Lys84 in TrpB; sulfate in the serine site
[2] = substrate: c1ccc2[nH]ccc2c1; experiment: purified protein; assay type: biochemical, Chlamydia trachomatis; conditions: L-Ser co-substrate, 40 uM PLP, 100 mM KCl, pH 8.0, room temperature

Row | Molecule | X-ray crystal structure, 2.42 Å [1] | kcat [2]
1 | Cc1ncc(COP(=O)(O)O)c(C=O)c1O [pyridoxal 5′-phosphate] | The CtTrpB active site, marked by the PLP adduct to βLys84 | 
2 | B1 |  | 21.1 min⁻¹
